According to patent US20230021275A1, “Application of Nanosulfur in Tomato Fusarium Wilt Control” (Jiangnan University, priority 2021, published 2023):

Experiments:
[1] = tested on: Fusarium oxysporum f sp. Lycopersici; experiment: Foliar application to tomatoes grown in infected soil (tomato fusarium wilt control); format: in vivo; details: foliar spraying 100 mg/L; for Fresh weight of above-ground part / Fresh weight of underground part / Incidence: 10 mL/plant, 6th and 8th week, 10th week
From the text: There were 5 levels of disease severity of tomatoes: 0: symptomless; 1: mildly stunted; 2: stunted; 3: leaves wilted and yellowed; and 4: dead. […] The highest disease severity level of tomatoes was Level 4. The total number of tomato plants in the treated group was 6. Test of biomass of above-ground part and underground part: Tomatoes were sampled destructively. The above-ground part and the underground part of the tomato were washed with ultrapure water three times. The above-ground part and the underground part of the tomato were dried up with filter paper. The above-ground part and the underground part were weighed using a balance. The obtained weights were respectively the biomass of the above-ground part and the underground part of the tomato. (1) Pathogenic bacteria (Fusarium oxysporum f sp. Lycopersici, the pathogen of tomato fusarium wilt) were added to dry soil at a concentration of 1×10^6 spores/g to obtain infected soil. (2) Tomato seeds were sowed in the infected soil. […] The cultivation was continued. In the meanwhile, tomato seeds were sowed in soil not infected with pathogenic bacteria, and cultivated normally with no sulfur solution applied, to obtain a healthy group. The cultivation of the tomatoes was continued until the 10th week. The tomatoes were examined for the disease severity. The tomatoes were sampled destructively. The fresh weights of the above-ground part and the underground part of the tomatoes were measured. The test results are as follows: (1) Pathogenic bacteria (F. oxysporum, the pathogen of tomato fusarium wilt) were added to dry soil at a concentration of 1×10^6 spores/g to obtain infected soil. (2) Tomato seeds were sowed in the infected soil. […] The cultivation was continued. In the meanwhile, tomato plants with no fertilizer applied were taken as the foliar disease group. When the tomatoes grew to the 10th week, the tomatoes were examined for the disease severity. The tomatoes were sampled destructively. The fresh weights of the above-ground part and the underground part of the tomatoes were measured.

F. oxysporum = experiment: Growth of pathogen colonies on PDA plates; format: cell-based; details: 100 mg/L
From the text: This may be because the nanosulfur could induce the systemic acquired resistance of plants and the control effect of the nanosulfur on the tomato fusarium wilt was better than the direct bactericidal effect thereof.

Compound	Effect on fresh weights of above-ground and underground part (biomass) compared with the disease group [1]	Effect on the incidence of tomato fusarium wilt compared with the disease group [1]	Fresh weight of above-ground part [1]	Fresh weight of underground part [1] [b g]	Incidence [1]	Antibacterial effect relative to that of the 30-SNPs (F. oxysporum; 6 days) [times]	Reduction of the diameter of the pathogenic bacteria colonies (F. oxysporum; 6 days of exposure, compared with the foliar disease group) [%]
Cc1cc(O)no1 [Hymexazol, hymexazol]	significantly increased	significantly reduced	6.9 ± 0.9c g	1.8 ± 0.5	0.42 ± 0.08cd	3.05	34.5
O=S(=O)([O-])[O-].[Na+].[Na+] [Sodium sulfate, sodium sulfate]	no significant effects		5.5 ± 0.7 g·days	1.7 ± 0.2	0.64 ± 0.10a		
